The values that follow come from ChEMBL document CHEMBL1201862, “PubChem BioAssay data set” (2004).

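Method: 48-hour compound exposure of cells in 96-well plates, five concentrations, linear interpolation of endpoints. At the GI50, growth is halved.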 Active and inactive are the calls of the source. No stated cut-off is given here; in the data, active = GI50 up to about 1.1 µM and inactive = higher. Where only a bound is given, the exact number is not on record here.

Among the test systems are HOP-18; XF498; RXF 631; M19-MEL; DMS-273; DMS-114; KM-20L2; DLD-1; SNB-78.
Common to all, as to assay: NCI-60 cell line screen, 48 h

As to `CN(C)C(=S)/N=c1\ssc(=S)n1Cc1ccncc1`, the GI50 was 17.7 µM (inactive) in the test with HOP-18; 5.66 µM (inactive) in the test with XF498; 3.8 µM (inactive) with RXF 631; 10.7 µM (inactive) in the test with M19-MEL; 16.4 µM (inactive) in the test with DMS-273; 2.39 µM (inactive) in the test on DMS-114. The GI50 in the test on KM-20L2 was 32.9 µM (inactive); with DLD-1, 16 µM (inactive); in the test on SNB-78 it was > 100 µM (inactive).

As to `Cc1cc([N+](=O)[O-])ccc1Sc1c2ccccc2nc2cc(Cl)ccc12`, the GI50 with HOP-18 is 34.8 µM (inactive); with XF498 it was 23 µM (inactive); in the test on RXF 631 it was 49.1 µM (inactive); in the test with M19-MEL, 43 µM (inactive); in the test on DMS-273, 26.9 µM (inactive); in the test on DMS-114, 25.4 µM (inactive). The GI50 is 20.4 µM (inactive) in the test on KM-20L2, 36.3 µM (inactive) with DLD-1 and 41.3 µM (inactive) in the test on SNB-78.

For `COc1ccccc1C12OC(=O)C1(C)Oc1ccccc1C2=O` (stereo unspecified), the GI50 in the test on XF498 was > 100 µM (inactive); in the test on RXF 631 it was 30.8 µM (inactive); in the test on M19-MEL, > 100 µM (inactive); with DMS-273, 22.5 µM (inactive); with DMS-114 it was > 100 µM (inactive); in the test on KM-20L2, > 100 µM (inactive). The GI50 in the test on DLD-1 and with SNB-78 was > 100 µM (inactive) each time.

`Nc1ccc(C(=O)N/C(=C\c2ccc3c(c2)OCO3)c2nc3ccccc3s2)cc1`: the GI50 in the test with XF498 was 12.9 µM (inactive); in the test on RXF 631 it was 5.79 µM (inactive); in the test on M19-MEL, 14.9 µM (inactive); in the test on DMS-273, 16.8 µM (inactive); in the test with KM-20L2, 14.8 µM (inactive); in the test with DLD-1 it was 13 µM (inactive). Further, the GI50 in the test on SNB-78 is 16.7 µM (inactive).

For the compound `COc1ccc(N2C(=O)C3CC(c4ccc(Br)cc4)c4c([nH]c5ccccc45)C3C2=O)cc1` (stereo unspecified), the GI50 is 7.82 µM (inactive) with HOP-18; 13 µM (inactive) with XF498; 10.2 µM (inactive) in the test on M19-MEL; 6.41 µM (inactive) with DMS-273; 6.93 µM (inactive) with DMS-114; 9.46 µM (inactive) in the test with KM-20L2. Besides, the figures for the GI50 in the test with DLD-1 and in the test on SNB-78 were 10.1 µM (inactive) and 14.8 µM (inactive), respectively.

Turning to `N#Cc1c(C[n+]2ccccc2)c2ccccc2oc1=O`, the GI50 in the test on XF498, in the test on M19-MEL, in the test with DMS-273, in the test on DMS-114, with KM-20L2 and with DLD-1 was > 100 µM (inactive) in each case. Also, the GI50 in the test with SNB-78 was > 100 µM (inactive).

As to `NC1=NN(c2ccccc2)C(=O)C1/C(=N\NC(=O)c1cc2ccccc2cc1O)C(=O)Nc1ccc(Cl)cc1` (stereo unspecified), the GI50 in the test on HOP-18 is 25.4 µM (inactive); with XF498, 34.6 µM (inactive); with RXF 631, 49.1 µM (inactive); in the test with M19-MEL, 26.4 µM (inactive); in the test on DMS-273, 20.2 µM (inactive); in the test with DMS-114, 17.9 µM (inactive). For the same compound, the GI50 was 32.7 µM (inactive) in the test with KM-20L2, 21.6 µM (inactive) with DLD-1 and 34.8 µM (inactive) in the test with SNB-78.

Consider `C[C@@]1(O)CC[C@]2(C)C3CCCC3[C@H]12` (stereo partly specified), for which the GI50 in the test with HOP-18, with RXF 631, in the test on M19-MEL, with DMS-273, in the test with DMS-114 and with KM-20L2 was > 100 µM (inactive) each time. The GI50 in the test with DLD-1 and with SNB-78 was > 100 µM (inactive) in each case.

For `O=C(NC1C2CC3CC(C2)CC1C3)/C(Cl)=C1/Sc2ccccc2NC1=O` (stereo unspecified), the GI50 in the test with HOP-18 was > 100 µM (inactive); with XF498, > 100 µM (inactive); in the test on M19-MEL it was > 91.6 µM (inactive); with DMS-273, > 49 µM (inactive); in the test on DMS-114 it was > 65.5 µM (inactive); in the test on KM-20L2 it was > 100 µM (inactive). The GI50 with DLD-1 and in the test with SNB-78 was > 100 µM (inactive) throughout.

`CN(C)c1n/c(=N/Cc2ccco2)ss1`: the GI50 is > 100 µM (inactive) in the test with HOP-18; > 100 µM (inactive) in the test with XF498; 5.05 µM (inactive) with M19-MEL; 4.53 µM (inactive) in the test on DMS-273; 3.33 µM (inactive) in the test on DMS-114; > 100 µM (inactive) in the test with KM-20L2. Also, the GI50 is 14.2 µM (inactive) in the test with DLD-1 and > 58.9 µM (inactive) with SNB-78.

Consider `N#Cc1c2ccccc2c(Cc2ccc3c(c2)OCCOCCOCCOCCOCCO3)c2ccccc12`, for which the GI50 was 10.1 µM (inactive) with HOP-18; 10.5 µM (inactive) in the test on XF498; 4.68 µM (inactive) in the test on DMS-273; 10.4 µM (inactive) in the test with DMS-114; 10 µM (inactive) in the test with KM-20L2; 10.3 µM (inactive) with DLD-1. Besides, the GI50 in the test on SNB-78 was 9.14 µM (inactive).

As to `Cc1nc2ccccc2c(=O)n1-c1ccccc1I`, the GI50 in the test with M19-MEL was > 100 µM (inactive); in the test on DMS-114, 82.4 µM (inactive); in the test with DLD-1 it was > 100 µM (inactive); with SNB-78, > 100 µM (inactive).

In the case of `CC(=O)OC1OC2C(NC(=O)OC(C)(C)C)C1CC2(OCc1ccccc1)OCc1ccccc1` (stereo unspecified), the GI50 with HOP-18 is 19.5 µM (inactive); with XF498 it was 18.9 µM (inactive); in the test on RXF 631, 33.4 µM (inactive); in the test with M19-MEL it was 25.8 µM (inactive); in the test with DMS-273, 18.6 µM (inactive); with DMS-114, 18.7 µM (inactive). Also, the GI50 in the test with KM-20L2 is 19.9 µM (inactive); in the test on SNB-78, 37.6 µM (inactive).

`COc1cc([C@@H]2c3cc4c(cc3[C@@H](NC(=O)c3ccc([N+](=O)[O-])cc3)C3COC(=O)[C@@H]32)OCO4)cc(OC)c1O` (stereo partly specified): the GI50 in the test with HOP-18 was 67.8 µM (inactive); in the test with XF498, 0.166 µM (active); with RXF 631, 1.02 µM (active); with M19-MEL, 1.25 µM (inactive); in the test with DMS-273 it was 0.111 µM (active); with DMS-114 it was 0.31 µM (active). The figures for the GI50 in the test with KM-20L2, in the test with DLD-1 and with SNB-78 were 0.615 µM (active), 1.38 µM (inactive) and 1.92 µM (inactive), respectively.

Take `CCOc1ccc2c(c1)[n+]([O-])c(-c1ccc(Cl)cc1)c(N)[n+]2[O-]`: the GI50 with HOP-18 was > 100 µM (inactive); with DMS-273, > 100 µM (inactive); in the test on DMS-114, 68.7 µM (inactive); with KM-20L2, > 100 µM (inactive); with DLD-1, > 100 µM (inactive); in the test on SNB-78, > 100 µM (inactive).

As to `CC1=C(C(=O)CC(=O)C(=O)Nc2ccccc2C)Sc2ccccc2N1`, the GI50 in the test with HOP-18 is > 100 µM (inactive); with M19-MEL, > 100 µM (inactive); in the test with DMS-273, > 100 µM (inactive); with KM-20L2 it was > 81.3 µM (inactive); in the test with DLD-1, > 45.8 µM (inactive); with SNB-78, > 100 µM (inactive).

Consider `CC1=C(c2nc3ccccc3s2)C(=O)OC1(C)C`, for which the GI50 with XF498, in the test on RXF 631, in the test on M19-MEL, in the test with DMS-273, in the test with DMS-114 and with KM-20L2 was > 100 µM (inactive) throughout. For the same compound, the GI50 in the test with DLD-1 and in the test on SNB-78 was > 100 µM (inactive) each time.

For `Cc1cc2nc3c(C(OC4OC(CO)C(O)C(O)C4O)C(O)CO)nn(-c4ccc(F)cc4)c3nc2cc1C` (stereo unspecified), the GI50 in the test on XF498, with RXF 631, with M19-MEL, with DMS-114, with KM-20L2 and in the test on DLD-1 was > 100 µM (inactive) each time. Besides, in the test with SNB-78, the GI50 is > 100 µM (inactive).

As to `COc1cc(/C=C/c2ccc(OC)c(O)c2)cc(OC)c1`, the GI50 in the test with XF498 is 3.37 µM (inactive); with M19-MEL, 6.41 µM (inactive); in the test on DMS-273 it was 15.2 µM (inactive); in the test on DMS-114, 3.33 µM (inactive); in the test on KM-20L2, 20.4 µM (inactive); in the test with DLD-1 it was 5.52 µM (inactive). Besides, in the test with SNB-78, the GI50 is 5.64 µM (inactive).

On to `FC(F)(F)c1ccc(C2SCc3nc4ccccc4n32)cc1` (stereo unspecified), for which the GI50 was > 100 µM (inactive) in the test on HOP-18; 2.96 µM (inactive) in the test on RXF 631; 66.8 µM (inactive) in the test with M19-MEL; 33.8 µM (inactive) with DMS-273; 7.21 µM (inactive) in the test on DMS-114; 7.24 µM (inactive) with DLD-1. Moreover, in the test with SNB-78, the GI50 is > 100 µM (inactive).

With `O=[N+]([O-])c1ccc2nc(/C(=N/Nc3ccccc3)C(O)c3ccc(C(O)/C(=N\Nc4ccccc4)c4nc5ccc([N+](=O)[O-])cc5nc4O)cc3)cnc2c1` (stereo unspecified), the results for the GI50 in the test on M19-MEL, with DMS-114 and in the test on KM-20L2 were 58.9 µM (inactive), 11.2 µM (inactive) and 11.5 µM (inactive), respectively.

Consider `CCOC(=O)C(=O)Nc1c(C)cccc1C`, for which the GI50 with HOP-18, in the test on XF498, in the test with M19-MEL, with DMS-273, with DMS-114 and in the test with KM-20L2 was > 100 µM (inactive) throughout. The GI50 in the test with DLD-1 and in the test with SNB-78 was > 100 µM (inactive) throughout.

As to `O=C[C@]12CC=C3OC4OC5(CCCCC5)OC4[C@H]3[C@H]1C(=O)C=CC2=O` (stereo partly specified), the GI50 in the test on XF498 was 14.6 µM (inactive); in the test on RXF 631 it was 35.6 µM (inactive); in the test with M19-MEL, 23.1 µM (inactive); with DMS-273, 39.2 µM (inactive); in the test on DMS-114 it was 19.1 µM (inactive); in the test with DLD-1, 17.3 µM (inactive). Also, the GI50 in the test on SNB-78 was 14.2 µM (inactive).

For the compound `O=C(NCCNCCO)c1cccc2ccc(-c3ccccc3)nc12`, the GI50 in the test with HOP-18 is 19 µM (inactive); in the test on RXF 631 it was 1.83 µM (inactive); in the test with M19-MEL it was 4.89 µM (inactive); in the test with DMS-273 it was 3.86 µM (inactive); with DMS-114 it was 7.52 µM (inactive); with DLD-1, 3.41 µM (inactive). Also, the GI50 in the test on SNB-78 is 9.25 µM (inactive).

For the compound `Oc1ccc(Br)cc1/C=N/c1ccc(Oc2ccc(/N=C/c3cc(Br)ccc3O)cc2)cc1`, the GI50 with HOP-18, in the test with M19-MEL, in the test with DMS-273, in the test with DMS-114, in the test with KM-20L2 and in the test on DLD-1 was > 19.6 µM (inactive) each time.
